Experimental data from patent US12521375B2, “Pharmaceutical composition for treating fatty liver disease” (Shionogi & Co., Ltd., priority 2020, dated 2026).
Values belong to the compound of their own block, whether it stands above or below them.

How the values were obtained:
[1] = Metabolic stability test (human); assay type: in vitro ADME; conditions: human liver microsomes, 37° C., 30 minutes, NADPH
Procedure: Commercially available pooled human liver microsomes were reacted with the compound of the present invention for a given time. A residual rate was calculated by comparison between the reacted sample and the unreacted sample to evaluate a degree at which the compound of the present invention is metabolized in the liver.
The compound was reacted at 37° C. for 0 minutes or 30 minutes in the presence of 1 mmol/L NADPH in 0.2 mL of a buffer (50 mmol/L Tris-HCl pH 7.4, 150 mmol/L potassium chloride, and 10 mmol/L magnesium chloride) containing 0.5 mg protein/mL of the human liver microsomes (oxidative reaction). After the reaction, 50 μL of the reaction solution was added to 100 μL of a solution of methanol/acetonitrile=1/1 (v/v) and mixed, and the mixture was centrifuged at 3000 rpm for 15 minutes. The compound of the present invention in the centrifuged supernatant was quantified by LC/MS/MS or solid-phase extraction (SPE)/MS. The amount of the compound of the present invention remained after the reaction was calculated with the amount of the compound at 0 minutes of the reaction defined as 100%.

[2] = system: mice fed an ultra-high fat, choline-deficient, methionine-lowered diet; assay: Effect on liver fibrosis progression in mice fed ultra-high fat, choline-deficient, methionine-lowered diet; assay type: in vivo, C57BL/6JJcl mice; set-up: 3-hydroxybutyric acid in plasma: unit not given here; conditions: for Amount of triglyceride in liver / Sirius red-positive area rate / 3-hydroxybutyric acid in plasma / Plasma triglyceride concentration: bid; for Amount of triglyceride in liver / Sirius red-positive area rate: oral, 8 weeks; for gene expression level in the liver, Fasn / gene expression level in the liver, Srebf1: vehicle = 1.00
Procedure: Six-week-old male C57BL/6JJcl mice were fed an ultra-high fat, choline-deficient, methionine-lowered diet (60 kcal % fat content, using lard, choline-deficient, methionine-lowered (0.1%)), and at the same time, the compound of the present invention was suspended in a vehicle (0.5% methylcellulose aqueous solution) so as to have a dose of 3 to 45 mg/kg/10 mL, and orally repeatedly administered (b.i.d.) for 8 weeks. Blood was collected from the tail vein during the repeated administration period, and biochemical parameters in plasma were measured. After 8 weeks of administration, blood was collected from the abdominal vena cava under anesthesia, and then the liver was collected. Paraffin-embedded sections prepared from the collected liver were subjected to Sirius red staining. A degree of fibrosis progression in the liver was determined from a Sirius red-positive area rate and evaluated.

recombinant human ACC2 = recombinant human ACC2 (Homo sapiens (Human), UniProt O00763); assay: Measurement of inhibitory activity of human ACC2; assay type: biochemical; conditions: read-out: IC50 hACC2
recombinant human ACC2, sequence (O00763 27-2458): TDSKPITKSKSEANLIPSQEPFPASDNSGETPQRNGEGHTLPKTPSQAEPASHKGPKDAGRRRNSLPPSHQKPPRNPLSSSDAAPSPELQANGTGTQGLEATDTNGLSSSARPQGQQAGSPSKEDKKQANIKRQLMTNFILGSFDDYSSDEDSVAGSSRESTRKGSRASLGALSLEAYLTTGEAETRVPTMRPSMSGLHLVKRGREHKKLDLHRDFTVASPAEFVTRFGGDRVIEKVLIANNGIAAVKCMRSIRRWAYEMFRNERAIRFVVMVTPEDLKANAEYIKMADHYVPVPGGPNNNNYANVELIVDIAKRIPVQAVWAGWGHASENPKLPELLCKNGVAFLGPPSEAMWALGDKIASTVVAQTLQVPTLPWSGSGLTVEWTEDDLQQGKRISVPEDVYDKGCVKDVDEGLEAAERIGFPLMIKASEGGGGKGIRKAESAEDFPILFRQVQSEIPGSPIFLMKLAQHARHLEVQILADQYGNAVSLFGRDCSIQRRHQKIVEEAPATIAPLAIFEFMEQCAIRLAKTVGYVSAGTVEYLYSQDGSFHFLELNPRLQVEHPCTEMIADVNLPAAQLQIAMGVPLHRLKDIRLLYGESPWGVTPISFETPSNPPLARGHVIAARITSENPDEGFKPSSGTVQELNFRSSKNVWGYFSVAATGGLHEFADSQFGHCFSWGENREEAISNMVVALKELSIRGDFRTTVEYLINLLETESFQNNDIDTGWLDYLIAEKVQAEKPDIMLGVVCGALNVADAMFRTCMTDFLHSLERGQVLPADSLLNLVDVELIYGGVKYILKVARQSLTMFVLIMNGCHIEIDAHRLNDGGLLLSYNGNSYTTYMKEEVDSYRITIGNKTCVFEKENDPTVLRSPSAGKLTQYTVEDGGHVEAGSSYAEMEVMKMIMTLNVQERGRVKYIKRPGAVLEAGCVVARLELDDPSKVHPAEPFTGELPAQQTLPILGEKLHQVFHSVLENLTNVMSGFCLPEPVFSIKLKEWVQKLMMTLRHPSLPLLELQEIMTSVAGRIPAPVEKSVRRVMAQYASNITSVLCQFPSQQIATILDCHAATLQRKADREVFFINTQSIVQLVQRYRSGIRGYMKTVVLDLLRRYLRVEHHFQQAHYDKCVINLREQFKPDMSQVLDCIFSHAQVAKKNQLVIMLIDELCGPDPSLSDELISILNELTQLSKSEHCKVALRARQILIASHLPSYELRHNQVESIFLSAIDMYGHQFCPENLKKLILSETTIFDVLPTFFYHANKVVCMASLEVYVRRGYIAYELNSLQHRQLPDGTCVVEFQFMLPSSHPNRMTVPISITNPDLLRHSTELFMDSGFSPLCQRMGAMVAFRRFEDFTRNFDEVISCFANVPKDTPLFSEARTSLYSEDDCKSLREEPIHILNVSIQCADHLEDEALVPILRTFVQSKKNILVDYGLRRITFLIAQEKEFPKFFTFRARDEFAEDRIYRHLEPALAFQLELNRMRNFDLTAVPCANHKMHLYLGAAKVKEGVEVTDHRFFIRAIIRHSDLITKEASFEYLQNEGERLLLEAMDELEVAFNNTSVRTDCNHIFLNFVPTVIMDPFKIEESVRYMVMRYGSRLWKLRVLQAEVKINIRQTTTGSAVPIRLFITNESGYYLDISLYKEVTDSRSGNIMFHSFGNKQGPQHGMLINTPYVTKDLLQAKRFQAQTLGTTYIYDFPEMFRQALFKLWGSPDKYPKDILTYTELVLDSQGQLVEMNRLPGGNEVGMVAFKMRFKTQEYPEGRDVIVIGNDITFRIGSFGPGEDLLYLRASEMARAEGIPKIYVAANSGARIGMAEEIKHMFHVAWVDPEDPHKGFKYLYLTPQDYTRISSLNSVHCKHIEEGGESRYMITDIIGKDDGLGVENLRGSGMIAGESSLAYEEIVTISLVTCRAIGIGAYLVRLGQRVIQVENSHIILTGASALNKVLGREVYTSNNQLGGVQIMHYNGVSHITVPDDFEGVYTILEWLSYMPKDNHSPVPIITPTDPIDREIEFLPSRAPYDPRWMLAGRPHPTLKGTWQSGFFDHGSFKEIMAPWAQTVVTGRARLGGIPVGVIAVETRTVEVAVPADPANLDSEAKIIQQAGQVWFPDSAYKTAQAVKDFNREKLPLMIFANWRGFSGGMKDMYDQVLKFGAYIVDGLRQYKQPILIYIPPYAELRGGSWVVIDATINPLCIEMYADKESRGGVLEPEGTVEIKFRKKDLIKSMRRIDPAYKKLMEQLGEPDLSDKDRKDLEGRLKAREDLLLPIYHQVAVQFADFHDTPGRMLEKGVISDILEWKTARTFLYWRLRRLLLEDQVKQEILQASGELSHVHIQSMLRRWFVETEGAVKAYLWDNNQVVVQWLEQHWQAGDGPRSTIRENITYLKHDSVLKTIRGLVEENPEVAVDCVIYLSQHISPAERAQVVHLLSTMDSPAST
Excerpt: A cDNA encoding human ACC2 protein (27 amino acid residues to 2458 amino acid residues from the N-terminus) was cloned from a human kidney cDNA library (Clontech Laboratories, Inc.), a His-tag sequence was introduced at the 5′ end, and then inserted into pFastBac1 (Invitrogen). A recombinant baculovirus was produced in accordance with the protocol for a Bac-to-Bac baculovirus expression system (Invitrogen), and Sf-9 cells were infected therewith to express human ACC2 protein. The recovered cells were crushed, filtered through a filter, and then subjected to Ni affinity chromatography and anion exchange chromatography. Fractions containing human ACC2 protein were collected to obtain recombinant human ACC2.
The recombinant human ACC1 and the recombinant human ACC2 obtained from the above Preparation Examples were preincubated in an assay buffer (50 mM HEPES-KOH (pH 7.4), 10 mM magnesium chloride, 6 to 10 mM potassium citrate, 4 mM reduced glutathione, and 1.5 mg/ml bovine serum albumin) for 1 hour. […] After incubation, the enzymatic reaction was stopped by addition of EDTA, and then the compound was co-crystallized with an α-cyano-4-hydroxy cinnamic acid (CHCA) matrix on a MALDI target plate, and measurement was performed in a reflector negative mode using a matrix-assisted laser desorption ionization-time-of-flight mass spectrometer (MALDI-TOF MS). Deprotonated ions of the substrate acetyl-CoA (AcCoA) and the reaction product malonyl-CoA (MalCoA) were detected, and the intensity of each signal was used to calculate a conversion rate to malonyl-CoA […], i.e., intensity of [MalCoA-H]-/(intensity of [MalCoA-H]-+intensity of [AcCoA-H]-). […] The potassium citrate concentration in the assay buffer, the potassium bicarbonate concentration in the substrate solution, and the incubation time were adjusted within the above concentrations or reaction times for each lot of the enzyme to be used.

Crl:CD (SD) rats = assay: Influence on platelet count; assay type: in vivo; conditions: for Platelet count: oral, 4 days, SD rats; for platelet count in SD rats (in words): within a dose range used for evaluation (50 to 600 mg/kg/day)
Procedure: The compound of the present invention was suspended in a 0.5% methylcellulose solution so as to have a dose of 50 to 600 mg/kg/day, and was orally repeatedly administered for 4 days to 6-week-old male Crl:CD (SD) rats under non-fasted conditions. On day 5 from the start of administration, blood was collected from the abdominal vena cava under anesthesia, and […]. A platelet count in plasma was evaluated with an automatic hemocytometer.

Amount of compound remained, Human [1]: 83.3%
Plasma triglyceride concentration ([2]; 3 mg/kg, Week 2): 32.9 ± 1.3 mg/dL
Plasma triglyceride concentration ([2]; 3 mg/kg, Week 4): 22.4 ± 2.1 mg/dL
Plasma triglyceride concentration ([2]; 3 mg/kg, Week 7): 27.2 ± 1.5 mg/dL
Plasma triglyceride concentration ([2]; 10 mg/kg, Week 2): 30.4 ± 2.2 mg/dL
Plasma triglyceride concentration ([2]; 10 mg/kg, Week 4): 21.5 ± 1.8 mg/dL
Plasma triglyceride concentration ([2]; 10 mg/kg, Week 7): 22.1 ± 1.9 mg/dL
Plasma triglyceride concentration ([2]; 30 mg/kg, Week 2): 23.1 ± 2.5 mg/dL
Plasma triglyceride concentration ([2]; 30 mg/kg, Week 4): 11.1 ± 1.1 mg/dL
Plasma triglyceride concentration ([2]; 30 mg/kg, Week 7): 16.2 ± 1.6 mg/dL
IC50 (recombinant human ACC2): 5.6 nM
Platelet count (Crl:CD (SD) rats; 100 mg/kg/day): 987 ± 86
Platelet count (Crl:CD (SD) rats; 300 mg/kg/day): 988 ± 43
Platelet count (Crl:CD (SD) rats; 600 mg/kg/day): 1061 ± 85
platelet count in SD rats (in words) (Crl:CD (SD) rats): did not affect the platelet count
SMILES: C[C@@H](CO[C@H]1CC[C@H](Oc2nc3c(F)cc(OC4CC4)cc3n2C)CC1)NC(N)=O [Compound I-12]
Amount of triglyceride in liver ([2]; 3 mg/kg): 157 ± 7.3 mg/g tissue
Sirius red-positive area rate ([2]; 3 mg/kg): 3.47 ± 0.41%
3-hydroxybutyric acid in plasma ([2]; 3 mg/kg, Week 2): 128 ± 23
3-hydroxybutyric acid in plasma ([2]; 3 mg/kg, Week 4): 155 ± 31
3-hydroxybutyric acid in plasma ([2]; 3 mg/kg, Week 7): 108 ± 31
Amount of triglyceride in liver ([2]; 10 mg/kg): 137 ± 7.2 mg/g tissue
Sirius red-positive area rate ([2]; 10 mg/kg): 4.46 ± 0.69%
3-hydroxybutyric acid in plasma ([2]; 10 mg/kg, Week 2): 136 ± 23
3-hydroxybutyric acid in plasma ([2]; 10 mg/kg, Week 4): 292 ± 27
3-hydroxybutyric acid in plasma ([2]; 10 mg/kg, Week 7): 119 ± 34
Amount of triglyceride in liver ([2]; 30 mg/kg): 144 ± 7.5 mg/g tissue
Sirius red-positive area rate ([2]; 30 mg/kg): 2.29 ± 0.32 %
3-hydroxybutyric acid in plasma ([2]; 30 mg/kg, Week 2): 189 ± 33
3-hydroxybutyric acid in plasma ([2]; 30 mg/kg, Week 4): 292 ± 82
3-hydroxybutyric acid in plasma ([2]; 30 mg/kg, Week 7): 187 ± 28
Sirius red-positive area rate vs vehicle administration group (in words) ([2]; dose of 30 mg/kg): significantly lower than that of the vehicle administration group
amount of triglyceride in the liver vs vehicle administration group (in words) ([2]; dose of 10 or 30 mg/kg): significantly lower than that of the vehicle administration group
concentration of 3-hydroxybutyric acid in plasma vs vehicle administration group (in words) ([2]; mouse, in vivo): higher than that in the vehicle administration group
plasma triglyceride concentration vs vehicle administration group (in words) ([2]; mouse, in vivo): lower than that in the vehicle administration group

Amount of compound remained, Human [1]: 95.4%
Plasma triglyceride concentration ([2]; 15 mg/kg, Week 0): 61.6 ± 3.1 mg/dL
Plasma triglyceride concentration ([2]; 15 mg/kg, Week 1): 23.7 ± 1.0 mg/dL
Plasma triglyceride concentration ([2]; 15 mg/kg, Week 3): 19.8 ± 1.2 mg/dL
Plasma triglyceride concentration ([2]; 15 mg/kg, Week 5): 19.0 ± 1.7 mg/dL
Plasma triglyceride concentration ([2]; 15 mg/kg, Week 7): 18.8 ± 1.2 mg/dL
Plasma triglyceride concentration ([2]; 45 mg/kg, Week 0): 63.6 ± 3.7 mg/dL
Plasma triglyceride concentration ([2]; 45 mg/kg, Week 1): 22.4 ± 2.5 mg/dL
Plasma triglyceride concentration ([2]; 45 mg/kg, Week 3): 18.9 ± 1.4 mg/dL
Plasma triglyceride concentration ([2]; 45 mg/kg, Week 5): 16.5 ± 1.7 mg/dL
Plasma triglyceride concentration ([2]; 45 mg/kg, Week 7): 15.1 ± 1.0 mg/dL
IC50 (recombinant human ACC2): 6.6 nM
Platelet count (Crl:CD (SD) rats; 50 mg/kg/day): 1079 ± 73
Platelet count (Crl:CD (SD) rats; 100 mg/kg/day): 1048 ± 65
Platelet count (Crl:CD (SD) rats; 200 mg/kg/day): 1122 ± 87
platelet count in SD rats (in words) (Crl:CD (SD) rats): did not affect the platelet count
SMILES: CC(=O)N[C@@H](C)CC[C@H]1OC[C@H](Oc2nc3c(F)cc(OC4CC4)cc3n2C)CO1 [Compound I-13]
Amount of triglyceride in liver ([2]; 15 mg/kg): 179 ± 6.8 mg/g tissue
Sirius red-positive area rate ([2]; 15 mg/kg): 1.33 ± 0.20%
3-hydroxybutyric acid in plasma ([2]; 15 mg/kg, Week 0): 298 ± 27
3-hydroxybutyric acid in plasma ([2]; 15 mg/kg, Week 1): 396 ± 30
3-hydroxybutyric acid in plasma ([2]; 15 mg/kg, Week 3): 797 ± 48
3-hydroxybutyric acid in plasma ([2]; 15 mg/kg, Week 5): 616 ± 37
3-hydroxybutyric acid in plasma ([2]; 15 mg/kg, Week 7): 501 ± 28
gene expression level in the liver, Fasn ([2]; 15 mg/kg): 0.82 ± 0.20
gene expression level in the liver, Srebf1 ([2]; 15 mg/kg): 0.70 ± 0.19
Amount of triglyceride in liver ([2]; 45 mg/kg): 155 ± 7.1 mg/g tissue
Sirius red-positive area rate ([2]; 45 mg/kg): 1.06 ± 0.10 %
3-hydroxybutyric acid in plasma ([2]; 45 mg/kg, Week 0): 369 ± 28
3-hydroxybutyric acid in plasma ([2]; 45 mg/kg, Week 1): 378 ± 28
3-hydroxybutyric acid in plasma ([2]; 45 mg/kg, Week 3): 688 ± 72
3-hydroxybutyric acid in plasma ([2]; 45 mg/kg, Week 5): 564 ± 77
3-hydroxybutyric acid in plasma ([2]; 45 mg/kg, Week 7): 462 ± 45
gene expression level in the liver, Fasn ([2]; 45 mg/kg): 0.59 ± 0.09
gene expression level in the liver, Srebf1 ([2]; 45 mg/kg): 0.34 ± 0.05
Sirius red-positive area rate vs vehicle administration group (in words) ([2]; dose of 45 mg/kg): significantly lower than that of the vehicle administration group
amount of triglyceride in the liver vs vehicle administration group (in words) ([2]; dose of 45 mg/kg): significantly lower than that of the vehicle administration group
Srebf1 and Fas in the liver (in words) ([2]; mouse, in vivo): no increase in Srebf1 and Fas in the liver was observed
concentration of 3-hydroxybutyric acid in plasma vs vehicle administration group (in words) ([2]; mouse, in vivo): higher than that in the vehicle administration group
plasma triglyceride concentration vs vehicle administration group (in words) ([2]; mouse, in vivo): lower than that in the vehicle administration group
